Measurements as given in US20240066045A1, “SEMICARBAZONE-BASED SAPONIN CONJUGATE” (priority 2020, published 2024).
Read-outs that look alike come from different tables or passages of the source.

Legend:
[1] = In vivo tolerability: clinical observations, body weight, serum ALT; set-up: species or system C57BL/6J mice; settings: study A; doses and dose regimens of Table A5, iv
Description: In Vivo Tolerability and Efficacy of Trivalent GalNAc-Conjugates in a C57BL/6J Model • Dose administration and in-life phase. Per group, 8 C57BL/6J male mice for treatment groups (in study A, 14 mice in vehicle control group), approximately 6-7 weeks at arrival and 8-9 weeks at dosing, were dosed. The compounds, formulated in PBS or PBS alone (vehicle) according to Table A5 and Table A6, were dosed at 5 ml/kg in the tail vain (intravenously, iv), with dose volumes corresponding to the individual bodyweights. Where applicable, trivalent (GalNAc)3-SO1861 (EMCH) was co-administered at 5 ml/kg in the tail vain (iv) right after the trivalent GalNAc-ApoB conjugate. Animals were weighed weekly and clinical observations were performed 2-3 times daily within the first 48 hrs, and at least once daily thereafter until study end. • Sampling of serum, liver, and kidney tissue. […]
Serum alanine transaminase (ALT) levels was measured using an AU480 assay kit from Beckman Coulter (photometric measurements), according to the manufacturer's instructions.

apoB protein in serum = experiment: In vivo efficacy: serum apoB protein (ELISA); set-up: species or system C57BL/6J mice; settings: study B; 2 mg/kg; 72 hrs post-dose
Description: In Vivo Tolerability and Efficacy of Trivalent GalNAc-Conjugates in a C57BL/6J Model • Dose administration and in-life phase. Per group, 8 C57BL/6J male mice for treatment groups (in study A, 14 mice in vehicle control group), approximately 6-7 weeks at arrival and 8-9 weeks at dosing, were dosed. […] […] Animals were weighed weekly and clinical observations were performed 2-3 times daily within the first 48 hrs, and at least once daily thereafter until study end. • Sampling of serum, liver, and kidney tissue. […] At the relevant inter-study post-dose timepoints, 3 animals per timepoint per treatment group (6 animals in the vehicle control group in study A) were sacrificed to collect terminal bleeds and collect relevant organs, such as liver and kidney tissues for further analyses. at end of study, the remaining 2 animals (4 in the control group in study A) per group were sacrificed. One half of the liver and one kidney was frozen and used for tissue RNA analysis.
ApoB protein levels in mouse serum was determined using an ApoB ELISA (ab230932, Abcam, Cambridge, UK), according to the manufacturer's instruction.

[2] = tested on: serum LDL-cholesterol (LDL-C); experiment: In vivo efficacy: serum LDL-cholesterol; set-up: species or system C57BL/6J mice
Description: (§1) In Vivo Tolerability and Efficacy of Trivalent GalNAc-Conjugates in a C57BL/6J Model • Dose administration and in-life phase. Per group, 8 C57BL/6J male mice for treatment groups (in study A, 14 mice in vehicle control group), approximately 6-7 weeks at arrival and 8-9 weeks at dosing, were dosed. The compounds, formulated in PBS or PBS alone (vehicle) according to Table A5 and Table A6, were dosed at 5 ml/kg in the tail vain (intravenously, iv), with dose volumes corresponding to the individual bodyweights. Where applicable, trivalent (GalNAc)3-SO1861 (EMCH) was co-administered at 5 ml/kg in the tail vain (iv) right after the trivalent GalNAc-ApoB conjugate. Animals were weighed weekly and clinical observations were performed 2-3 times daily within the first 48 hrs, and at least once daily thereafter until study end. • Sampling of serum, liver, and kidney tissue. […] At the relevant inter-study post-dose timepoints, 3 animals per timepoint per treatment group (6 animals in the vehicle control group in study A) were sacrificed to collect terminal bleeds and collect relevant organs, such as liver and kidney tissues for further analyses. at end of study, the remaining 2 animals (4 in the control group in study A) per group were sacrificed. One half of the liver and one kidney was frozen and used for tissue RNA analysis.
LDL-cholesterol was measured in mouse serum, using an LDL-cholesterol specific two-step AU480 assay kit, respectively, from Beckman Coulter, with a photometric measurement according to the manufacturer's instructions.

[3] = tested on: apoB RNA in primary human hepatocytes; experiment: apoB RNA expression analysis (qRT-PCR) after 72 hr treatment; assay type: cell-based; settings: read-out: IC50 apoB RNA levels
Description: RNA from cells was isolated using TRI Reagent® Solution (Thermo Scientific) according to the manufacturer's instruction. Conversion into cDNA was performed using iScript™ cDNA Synthesis Kit (BioRad) using standard protocols. ApoB expression levels and levels of specific hepatocyte housekeeping genes were determined using quantitative real-time PCR assays (qRT-PCR) using iTaq™ Universal SYBR® Green Supermix (BioRad) and the Light Cycler 480 (Roche Diagnostics, Rotkreuz, Switzerland) with specific DNA primers, listed in Table A4. Analysis was done by the ΔCt method to determine ApoB expression relative to 2 hepatocyte-specific housekeeping control mRNAs. Each analysis reaction was performed in triplicate.
Covalent binding of the saponin to the GalNAc/oligonucleotide conjugate via a semicarbazone bond thus results in increased efficacy when relative apoB RNA levels are considered and compared with levels measured in cells which were contacted with a conjugate comprising saponin linked via a hydrazone bond to the GalNAc/oligonucleotide conjugate. Without wishing to be bound by any theory, improved efficacy of the release of free saponin from the conjugate, when the conjugate is transferred into the endosome, is at the basis for the improved potency of the oligonucleotide, as obtained with the conjugate comprising saponin bound via semicarbazone. […]

apoB RNA in liver tissue = experiment: In vivo efficacy: apoB RNA in liver tissue (qRT-PCR); set-up: species or system C57BL/6J mice; settings: for reduction of liver apoB RNA compared to vehicle: study A
Description: as §1
The mRNA was isolated from frozen liver tissue using TRizol® Reagent (Thermo Scientific) according to the manufacturer's instruction. Conversion into cDNA was performed using iScript™ cDNA Synthesis Kit (BioRad). ApoB expression levels and levels of specific liver housekeeping genes were determined using quantitative real-time PCR assays (qRT-PCR) using iTaq™ Universal SYBR® Green Supermix (BioRad) and the Light Cycler 480 (Roche Diagnostics, Rotkreuz, Switzerland) with specific DNA primers, listed in Table A4 (study A) and Table A7 (study B), respectively. Analysis was done by the ΔCt method to determine ApoB expression relative to 2 liver-specific housekeeping control mRNAs. Each analysis reaction was performed in triplicate.

[4] = tested on: human red blood cells (RBC); experiment: Haemolysis assay; assay type: cell-based; settings: Erythrocyte; fresh human red blood cells
Description: Red blood cells (RBCs) were isolated from a buffy coat using a Ficoll gradient. The obtained RBC pellet (˜4-5 ml) was washed 2× with 50 ml DPBS (without Ca^2+/Mg^2+, PAN-Biotech GmbH). Cells were pelleted by centrifugation for 10 min, 800×g at RT. RBC were counted and resuspended at 500.000.000 c/ml in DPBS (without Ca^2+/Mg^2+), based on total cell count. SO1861-linker dilutions were prepared in DPBS (with Ca^2+/Mg^2+, PAN-Biotech GmbH), at 1.11× final strength. For positive lysis control a 0.02% Triton-X100 solution was prepared in DPBS^+/+. Of all compound solutions 135 μl was dispensed/well in a 96 well V-bottom plate. To this 15 μl RBC suspension was added and mixed shortly (10 sec—600 rpm). The plate was incubated 30 min at RT, with gentle agitation. Afterwards the plate was spun for 10 min at 800×g to pellet the RBC and 100-120 μl supernatant was transferred to a standard 96 wp. Subsequently, the OD at 405 nm was measured on a Thermo Scientific Multiskan FC plate reader (Thermo Scientific). For quantification the background signal of ‘DPBS^+/+ only’ wells was subtracted from all other wells before the percentage of hemolysis was calculated in comparison to 0.02% Triton-X100, by dividing the background corrected signal of treated wells over the background corrected signal of the 0.02% Triton-X100 wells (×100).

A431 cells [5] = experiment: Cell killing assay (MTS): saponin titrated on fixed non-effective concentration of targeted toxin (endosomal escape enhancing activity); assay type: cell-based; settings: Homo sapiens, A-431, read-out: IC50 nM (Activity; + 5 pM EGFdianthin), + 5 pM EGFdianthin
Description: (§2) Cell viability was determined by an MTS-assay, performed according to the manufacturer's instruction (CellTiter 96® AQueous One Solution Cell Proliferation Assay, Promega). Briefly, the MTS solution was diluted 20× in DMEM without phenol red (PAN-Biotech GmbH) supplemented with 10% FBS (PAN-Biotech GmbH). The cells were washed once with 200 μL PBS per well, after which 100 μL diluted MTS solution was added per well. The plate was incubated for approximately 20-30 minutes at 37° C. Subsequently, the optical density at 492 nm was measured on a Thermo Scientific Multiskan FC plate reader (Thermo Scientific). For quantification the background signal of ‘medium only’ wells was subtracted from all other wells, before the ratio of untreated/treated cells was calculated, by dividing the background corrected signal of untreated wells over the background corrected signal of the treated wells.

HeLa cells [6] = experiment: as above; assay type: cell-based
Description: as §2

A431 cells [7] = experiment: Cell toxicity (MTS), saponin alone; assay type: cell-based; settings: Homo sapiens, A-431
Description: as §2

HeLa cells [8] = experiment: Cell toxicity (MTS), saponin alone; assay type: cell-based; settings: Homo sapiens
Description: as §2

[9] = CMC determination (ANS fluorescence); assay type: physicochemical
Description: The critical micellar concentration (CMC) of saponins derived from Saponaria Officinalis (SO) was determined by the method of DeVendittis et al. (www.sciencedirect.com/science/article/pii/0003269781900063, doi.org/10.1016/0003-2697(81)90006-3, Analytical Biochemistry, Volume 115, Issue 2, August 1981, Pages 278-286) as follows: The emission spectrum of 8-Anilinonaphthalene-1-sulfonic acid (ANS) in either purified water (MQ) or PBS (Dulbecco's PBS+/+) was determined at dry weight concentrations of saponins ranging from 1 to 1400 μM to cover the range below and above the CMC. Above the CMC, the fluorescence yield of ANS increases and the wavelength of maximum emission decreases due to portioning of the fluorescent dye into micelles. Fluorescence yields were recorded on a Fluoroskan Ascent FL (Thermo Scientific) at an excitation wavelength of 355 nm, and an emission wavelength of 460 nm. 6 μg at a concentration of 75.86 μM of ANS were used per sample and measurement.

## 5′-GCattggtatTCA-3′ (GCATTGGTATTCA; listed as DNA, chemistry not fully specified) [ApoB #02 BNA]
[1]
  tolerability (clinical observations): well tolerated
apoB protein in serum
  serum apoB protein: 57 µg/mL
[2]; study A, 2 mg/kg, 72 hrs
  reduction of serum LDL-C compared to vehicle: ca. 50%
[2]; study A, 2 mg/kg, 336 hrs
  reduction of serum LDL-C compared to vehicle: ca. 40%
[2]; study A, 0.1, 1, or 2 mg/kg, 24 hrs
  serum LDL-C levels compared to vehicle: not noticeably reduced
[2]; study B, 2 mg/kg, 72 hrs post-dose
  serum LDL-C: 2 mg/dL
[3]; relative ApoB #02 BNA concentration, no transfection agent (FIG. 19A)
  IC50: 400 nM
[3]; transfection with RNAi-MAX
  IC50: 8 nM
apoB RNA in liver tissue; 0.1 mg/kg iv, 24 hrs
  reduction of liver apoB RNA compared to vehicle: not noticeably reduced
apoB RNA in liver tissue; 1 mg/kg iv, 24 hrs
  reduction of liver apoB RNA compared to vehicle: ~15%
apoB RNA in liver tissue; 2 mg/kg iv, 24 hrs
  reduction of liver apoB RNA compared to vehicle: ~21%
apoB RNA in liver tissue; 2 mg/kg iv, 72 hrs
  reduction of liver apoB RNA compared to vehicle: 39%
apoB RNA in liver tissue; 2 mg/kg iv, 336 hrs
  reduction of liver apoB RNA compared to vehicle: 30%
apoB RNA in liver tissue; study B, 2 mg/kg, 72 hrs
  liver apoB RNA levels, % of vehicle control: 53%

## CC(=O)O[C@H]1[C@H](O[C@@H]2OC[C@@H](O)[C@H](O)[C@H]2O)[C@@H](O)[C@H](O[C@@H]2[C@H](O)[C@@H](O[C@@H]3O[C@@H](C)[C@H](O[C@@H]4OC[C@@H](O)[C@H](O[C@@H]5O[C@H](CO)[C@@H](O)[C@H](O)[C@H]5O)[C@H]4O)[C@@H](O)[C@H]3O)[C@H](OC(=O)[C@]34CCC(C)(C)C[C@H]3C3=CC[C@@H]5[C@@]6(C)CC[C@H](O[C@@H]7O[C@H](C(=O)O)[C@@H](O)[C@H](O[C@@H]8OC[C@@H](O)[C@H](O)[C@H]8O)[C@H]7O[C@@H]7O[C@H](CO)[C@H](O)[C@H](O)[C@H]7O)[C@@](C)(C=O)[C@@H]6CC[C@@]5(C)[C@]3(C)C[C@H]4O)O[C@@H]2C)O[C@@H]1C [SO1861]
[4]
  IC50: 10 µM
A431 cells [5]
  IC50: 300 nM
HeLa cells [6]; HeLa and A431, + 5 pM EGFdianthin or 10 pM cetuximab-saporin or 50 pM Trastuzumab-saporin
  activity compared with the SO1861 derivatives: strongest activity
HeLa cells [6]; Homo sapiens, read-out: IC50 nM (Activity; + 5 pM EGFdianthin), HeLa cells, + 5 pM EGFdianthin
  IC50: 500 nM
A431 cells [7]
  IC50: 2000 nM
HeLa cells [8]
  IC50: 9 µM
[9]
  CMC: 120 µM
